{
  "source": "patent US20240415801A1",
  "about": "“Methods and Compositions for Treating Fibroids” (Lundquist Institute for Biomedical Innovation at …, priority 2023, published 2024)",
  "key": {"fibroid xenografts [1]": {"tested_on": "fibroid xenografts", "experiment": "RNA sequencing of fibroid xenografts (Example 1)", "assay_type": "in vivo, SCID/Beige mice", "settings": "for number of downregulated transcripts (RNAseq) / number of upregulated transcripts (RNAseq): cutoff 1.5 fold, xenografts after two months, n=4 vs 4 vehicle"}, "[2]": {"experiment": "Tolerability and body weight of xenograft mice (Example 2)", "settings": "5 mg/kg/three times per week", "experimental": "9-12-weeks-old female ovariectomized SCID/Beige mice (Charles River Laboratories) were implanted with pellets (Innovative Research of America) containing estradiol (0.05 mg/90 d release) and progesterone (25 mg/60 d release) as previously reported (4, 5). […] After two months of treatment animals were sacrificed, and blood was obtained by cardiac puncture.\nBriefly, freshly obtained fibroids from hysterectomies was cut aseptically into small pieces (4-5-mm3 cubes) using a razor blade and weighed. Equal weights of the explants from the same patient were implanted in the flank of SCID mice. […] After two months of treatment animals were sacrificed, and blood was obtained by cardiac puncture."}, "fibroid xenografts [3]": {"tested_on": "fibroid xenografts", "experiment": "Quantitative RT-PCR of fibroid xenografts (Example 1)", "assay_type": "in vivo, SCID/Beige mice", "settings": "20 mg/kg daily, 8 weeks", "procedure": "Quantitative RT-PCR was performed as previously described. Selected gene expression levels were assessed utilizing the Invitrogen StepOne System, with normalization against 18S. Triplicate reactions were conducted, and relative mRNA expression was calculated using the comparative cycle threshold method (2−ΔΔCt), with results presented as fold change relative to the control group. The primer sequences used are shown in the following Sequence Table: […]"}, "[4]": {"tested_on": "primary fibroid smooth muscle cells", "settings": "refs [10, 93]; cited from earlier work"}, "fibroid xenografts [5]": {"tested_on": "fibroid xenografts", "experiment": "Histology and immunohistochemistry of xenografts (Example 2)", "assay_type": "in vivo, SCID/Beige mice", "settings": "5 mg/kg, 8 weeks", "text": "After fixation with 4% paraformaldehyde and routine dehydration, a portion of xenograft samples were embedded in paraffin. To evaluate histologic characteristics, 5-μm-thick paraffin sections of xenografts were stained with hematoxylin and eosin (H-3502, Vector Laboratories, Inc.) and Masson's trichrome stain (HT15-1 KT, Sigma-Aldrich) according to the manufacturer's instructions.\nFor Immunohistochemistry, the xenografts were fixed with 4% paraformaldehyde in PBS, and subsequently transferred to PBS containing 30% sucrose (wt/vol) until equilibrated in cold (4° C.). After fixation, 5-μm-thick paraffin sections were treated three times with Histo-Clear™ (National Diagnostics, Atlanta, GA) for 5 min, and rehydrated by a sequential ethanol wash, and then incubated in target retrieval solution (Dako, Carpinteria, CA) in a microwave for 10 min in order to retrieve the antigens. For blocking, tissues were incubated for 10 minutes with 3% solution of H2O2 followed by incubation with PBS-5% normal goat serum-0.2% Triton X-100. Tissue sections were incubated with primary antibody rabbit anti-Ki67 (dilution 1:250, 27309-1-AP, Proteintech Group, Inc), rabbit anti-cleaved caspase-3 (dilution 1:50, #9664, Cell Signaling Technology), rabbit anti-CCND1 (dilution 1:50, #55506, Cell Signaling Technology) and mouse anti-E2F1 (dilution 1:50, sc-251, Santa Cruz Biotechnology, Inc.) overnight at 4° C. in a humidified chamber. The antigens were then visualized using biotinylated antibodies and streptavidin, conjugated with horseradish peroxidase. Control sections were incubated with the secondary antibody, with replacement of primary antibody with the dilution reagent (Dako). Diaminobenzidine (Dako) which served as the substrate. […] Immunostained sections were examined under a microscope (Olympus IX83; Olympus Surgical Technologies America) and five representative images of each slide were quantitatively analyzed with the use of Halo software (Indica Labs Inc.) and were averaged for comparative analysis between vehicle and […] treatment groups in a blinded fashion."}, "fibroid xenografts [6]": {"tested_on": "fibroid xenografts", "experiment": "Quantitative RT-PCR of xenografts (Example 2)", "assay_type": "in vivo, SCID/Beige mice", "settings": "5 mg/kg, 8 weeks, n=13", "procedure": "Total RNA was extracted from the xenografts using TRIzol (Thermo Fisher Scientific Inc., Waltham, MA). RNA concentration and integrity was determined using a Nanodrop 2000c spectrophotometer (Thermo Scientific, Wilmington, DE) and Agilent 2100 Bioanalyzer (Agilent Technologies, Santa Clara, CA) as previously described (7, 8). Briefly, 2 μg of RNA was reverse transcribed using random primers for selected genes according to the manufacturer's guidelines (Applied Biosystems, Carlsbad, CA). Quantitative RT-PCR was carried out using SYBR gene expression master mix (Applied Biosystems). Reactions were incubated for 10 min at 95° C. followed by 40 cycles for 15 seconds at 95° C. and 1 min at 60° C. The expression levels of selected genes were quantified using Invitrogen StepOne System with FBXW2 (F-box and WD repeat domain containing 2) used for normalization (9). All reactions were run in triplicate and relative mRNA expression was determined using the comparative cycle threshold method (2−ΔΔCq), as recommended by the supplier (Applied Biosystems). Values were expressed as fold change compared to the control group. […]"}, "[7]": {"settings": "xenografts, 20 mg/kg daily, two months"}},
  "data": [
    {"smiles": "Cc1ccc(S(=O)(=O)/C=C/C#N)cc1", "note": "[Bay 11-7082]", "values": [
      {"measurement": "number of downregulated transcripts (RNAseq)", "setting": "fibroid xenografts [1]", "value": 629},
      {"measurement": "number of upregulated transcripts (RNAseq)", "setting": "fibroid xenografts [1]", "value": 374},
      {"measurement": "number of downregulated transcripts (RNAseq)", "setting": "fibroid xenografts [1]; listed as Bay", "value": 374},
      {"measurement": "number of upregulated transcripts (RNAseq)", "setting": "fibroid xenografts [1]; listed as Bay", "value": 629},
      {"measurement": "RNAseq: expression of TDO2 and serotonin receptor HTR1B", "setting": "fibroid xenografts [1]; [7]", "value": "significantly inhibited"},
      {"measurement": "RNAseq: expression of growth factors (IGF1, EGF, PDGF, FGF8, PRL, TGFB3) and ECM components (COL3A1, KRT10)", "setting": "fibroid xenografts [1]; [7]", "value": "decrease"},
      {"measurement": "RNAseq: genes of cell proliferation, mitosis, mitotic apparatus, cytokinesis (Ki67, E2F1, CCND1, CCNB1, CCNA2, BUB1, CKS2 and others)", "setting": "fibroid xenografts [1]; [7]", "value": "downregulated"},
      {"measurement": "RNAseq: pro-inflammatory cytokines (IL1a, IL1b, TNF, IL6, IL15, IL7R, TNFRSF11A), TLR3, TLR6, chemokines (CXCCR4, CCR5, CCL3, CCL5)", "setting": "fibroid xenografts [1]; [7]", "value": "downregulation"},
      {"measurement": "RNAseq: vWF, ICAM1, ITGAX, SOX2, CXCL8, IL10, IL13", "setting": "fibroid xenografts [1]; xenografts, two months, significant variation among animals", "value": "up-regulated"},
      {"measurement": "effect on body weight", "setting": "[2]", "value": "no significant effects"},
      {"measurement": "body weight", "setting": "[2]; vehicle 26.16g±0.49", "value": 25.42, "unit": "g"},
      {"measurement": "expression of miR-29c and miR-200c", "setting": "fibroid xenografts [3]", "value": "significant increase"},
      {"measurement": "mRNA expression of SPARC, TDO2, MYD88, TLR6, TLR3, IL6, TNFα, TNFRSF11A, IL1β, COL3A1, FN1, LOX, TGFB3, CCND1, E2F1, CKS2, PRL, ESR1, PGR, VEGFC, PDGFA, HTR1B", "setting": "fibroid xenografts [3]; n=10", "value": "significant decrease"},
      {"measurement": "expression of miR-29c and miR-200c", "setting": "[4]", "value": "induced"},
      {"measurement": "cell proliferation: nuclei staining for Ki67, CCND1 and E2F1", "setting": "fibroid xenografts [5]", "value": "reduced number of nuclei staining"},
      {"measurement": "staining for collagen (Masson's trichrome, blue stain)", "setting": "fibroid xenografts [5]", "value": "significant decrease"},
      {"measurement": "staining of cleaved caspase 3 (apoptosis)", "setting": "fibroid xenografts [5]", "value": "no significant change"},
      {"measurement": "mRNA expression of COL1A1, COL3A1, FN1, TGF-β3, CCND1, CDK2, E2F1, EZH2, MyD88 and SPARC", "setting": "fibroid xenografts [6]", "value": "significant decrease"}
    ]}
  ]
}
